Assay results reported in DBAASP.
≈ marks a conversion by molar mass, not a printed value. Where “and” joins values, the source holds several entries; their conditions need not be identical. Identical values can stand only once. One block for each compound: values may come before it.

Columns and labels:
Assay in all cases: ≥ marks a high value that may be exact or a test limit, other limits are often not marked, values filed in µg/mL are converted to µM
[1] = test system: Staphylococcus aureus ATCC BAA-1556
[2] = test system: Bacillus subtilis ATCC 6633
[3] = test system: Staphylococcus aureus FDA 209P
[4] = test system: Salmonella enterica subsp. enterica serovar Typhimurium ATCC 14028s
[5] = test system: Pseudomonas aeruginosa H547
[6] = test system: Pseudomonas aeruginosa Z61
[7] = test system: Pseudomonas aeruginosa K799
[8] = test system: Pseudomonas aeruginosa H744
[9] = test system: Pseudomonas aeruginosa H374
Escherichia coli UB1005 = test system: Escherichia coli UB1005
Streptococcus agalactiae = test system: Streptococcus agalactiae
[10] = test system: Enterococcus faecalis ATCC 29212
[11] = test system: Pseudomonas aeruginosa wt
[12] = test system: Pseudomonas aeruginosa ATCC 27853
Staphylococcus aureus = test system: Staphylococcus aureus
[13] = test system: Staphylococcus aureus ATCC 25923
[14] = test system: Escherichia coli ATCC 25922
Candida albicans = test system: Candida albicans
[15] = test system: Acinetobacter calcoaceticus
Pseudomonas aeruginosa = test system: Pseudomonas aeruginosa
[16] = test system: Achromobacter xylosoxidans
Ralstonia pickettii = test system: Ralstonia pickettii
[17] = test system: Salmonella enterica serovar Typhimurium
[18] = test system: Pseudomonas aeruginosa M917
Pseudomonas fluorescens = test system: Pseudomonas fluorescens
[19] = test system: Pseudomonas aeruginosa M76
[20] = test system: Pseudomonas aeruginosa R70
[21] = test system: Pseudomonas aeruginosa M1426
[22] = test system: Pseudomonas aeruginosa PAO1
[23] = test system: Pseudomonas aeruginosa M1251
[24] = test system: Stenotrophomonas maltophilia
Aspergillus fumigatus = test system: Aspergillus fumigatus
[25] = test system: Mannheimia haemolytica Serovar 6
[26] = test system: Mannheimia haemolytica Serovar 2
Klebsiella pneumoniae = test system: Klebsiella pneumoniae
Bibersteinia trehalosi = test system: Bibersteinia trehalosi
[27] = test system: Corynebacterium pseudotuberculosis ATCC 19410
[28] = test system: Mannheimia haemolytica Serovar 1
Pasteurella multocida = test system: Pasteurella multocida
[29] = test system: Salmonella enterica subsp. arizonae

MIC [2]: 20.4 µM (≈ 64 µg/mL)
MIC [3]: 11.3 µM (≈ 35.5 µg/mL)
SMILES: CC[C@H](C)[C@H](NC(=O)[C@@H](N)C(C)C)C(=O)N[C@@H](CC(=O)O)C(=O)N[C@@H](CC(=O)O)C(=O)N[C@@H](CC(C)C)C(=O)N[C@@H](CCCCN)C(=O)N[C@@H](CCCCN)C(=O)N[C@H](C(=O)N[C@@H](C)C(=O)N[C@@H](CCCCN)C(=O)N[C@@H](CCCCN)C(=O)N[C@H](C(=O)N[C@@H](CCCN=C(N)N)C(=O)N[C@@H](CCCN=C(N)N)C(=O)N[C@@H](CCC(=O)O)C(=O)N[C@@H](CC(C)C)C(=O)N[C@@H](CC(C)C)C(=O)N[C@@H](CS)C(=O)N[C@@H](CCCCN)C(=O)N[C@@H](CCCCN)C(=O)N[C@@H](Cc1cnc[nH]1)C(=O)N[C@@H](Cc1cnc[nH]1)C(=O)N[C@@H](CCCCN)C(=O)N[C@@H](CCCCN)C(=O)N[C@@H](CC(C)C)C(=O)N[C@@H](CC(N)=O)C(=O)O)C(C)C)C(C)C [VIDDLKKVAKKVRRELLCKKHHKKLN]

MIC [4]: 5.63 µM (≈ 16 µg/mL)
MIC [5]: 5.63 µM (≈ 16 µg/mL)
MIC [6]: 6.68 µM (≈ 19 µg/mL)
MIC [7]: 11.3 µM (≈ 32 µg/mL)
MIC [8]: 1.41 µM (≈ 4 µg/mL)
MIC [9]: 1.41 µM (≈ 4 µg/mL)
MIC (Escherichia coli UB1005): 0.703 µM (≈ 2 µg/mL)
SMILES: CC[C@H](C)[C@H](NC(=O)[C@H](CC(C)C)NC(=O)[C@H](C)NC(=O)[C@@H]1CCCN1C(=O)[C@H](CC(C)C)NC(=O)CNC(=O)[C@@H](NC(=O)[C@@H](NC(=O)[C@H](CC(C)C)NC(=O)[C@@H](NC(=O)[C@H](CCCCN)NC(=O)[C@H](CO)NC(=O)CNC(=O)CNC(=O)[C@H](CCCCN)NC(=O)[C@@H](NC(=O)[C@H](CC(C)C)NC(=O)[C@H](CC(N)=O)NC(=O)[C@H](CCCCN)NC(=O)[C@@H](NC(=O)[C@H](Cc1ccccc1)NC(=O)[C@H](CCCCN)NC(=O)[C@H](CCCCN)NC(=O)[C@H](Cc1c[nH]c2ccccc12)NC(=O)[C@@H](N)CCCCN)[C@@H](C)CC)[C@@H](C)O)[C@@H](C)CC)[C@@H](C)O)[C@@H](C)O)C(=O)N[C@@H](CO)C(=O)O [KWKKFIKNLTKGGSKILTTGLPALIS]

MIC (Streptococcus agalactiae): 3.9 µM (≈ 7.86 µg/mL)
MIC [10]: 4 µM (≈ 8.06 µg/mL)
MIC [11]: 3 µM (≈ 6.05 µg/mL)
MIC [12]: 4 µM (≈ 8.06 µg/mL)
MIC (Staphylococcus aureus): 15.8 µM (≈ 31.8 µg/mL)
MIC [13]: 7.9 µM (≈ 15.9 µg/mL)
MIC [14]: 7.9 µM (≈ 15.9 µg/mL)
MIC (Candida albicans): 7.9 µM (≈ 15.9 µg/mL)
MIC [15]: 7.9 µM (≈ 15.9 µg/mL)
MIC (Pseudomonas aeruginosa): 31.7 µM (≈ 63.9 µg/mL)
SMILES: CC[C@H](C)[C@H](NC(=O)[C@H](C)NC(=O)[C@H](CO)NC(=O)[C@@H](NC(=O)[C@H](C)NC(=O)[C@H](CC(N)=O)NC(=O)[C@@H](NC(=O)[C@H](C)NC(=O)[C@H](Cc1cnc[nH]1)NC(=O)[C@@H]1CCCN1C(=O)[C@@H](NC(=O)[C@H](CC(C)C)NC(=O)[C@H](CO)NC(=O)[C@H](CC(C)C)NC(=O)[C@@H](N)Cc1ccccc1)[C@@H](C)CC)[C@@H](C)CC)C(C)C)C(=O)N[C@@H](C)C(=O)N[C@@H](CCCCN)C(=O)N[C@@H](Cc1cnc[nH]1)C(=O)N[C@@H](CC(N)=O)C(N)=O [FLSLIPHAINAVSAIAKHN]

The remaining lines, values behind:

SMILES: CC(C)C[C@H](NC(=O)[C@H](CC(C)C)NC(=O)[C@H](CCCCN)NC(=O)[C@H](CC(C)C)NC(=O)[C@H](CC(C)C)NC(=O)[C@H](CC(C)C)NC(=O)[C@H](CCCCN)NC(=O)[C@@H](N)CC(C)C)C(N)=O [LKLLLKLL]
MIC [1]: ≥ 100 µM

SMILES: CC(C)C[C@H](NC(=O)[C@H](C)NC(=O)[C@H](CC(C)C)NC(=O)[C@H](C)NC(=O)[C@H](CC(C)C)NC(=O)[C@H](CCCCN)NC(=O)[C@H](C)NC(=O)[C@H](CC(C)C)NC(=O)[C@H](CCCCN)NC(=O)[C@H](CCCCN)NC(=O)[C@H](C)NC(=O)[C@H](CC(C)C)NC(=O)[C@H](CCCCN)NC(=O)[C@H](C)NC(=O)[C@H](CC(C)C)NC(=O)[C@H](CCCCN)NC(=O)[C@H](CCCCN)NC(=O)[C@H](C)NC(=O)[C@@H](N)C(C)C)C(N)=O [VAKKLAKLAKKLAKLALAL]
MIC [16]: ≥ 32.1 µM
MIC (Ralstonia pickettii): 4.02 µM (≈ 8 µg/mL)
MIC (Staphylococcus aureus): 16.1 µM (≈ 32 µg/mL)
MIC [17]: ≥ 32.1 µM
MIC [18]: 8.03 µM (≈ 16 µg/mL)
MIC (Pseudomonas fluorescens): 4.02 µM (≈ 8 µg/mL)
MIC (Candida albicans): 8.03 µM (≈ 16 µg/mL)
MIC [19]: 4.02 µM (≈ 8 µg/mL)
MIC [20]: 4.02 µM (≈ 8 µg/mL)
MIC [21]: 4.02 µM (≈ 8 µg/mL)
MIC [22]: 16.1 µM (≈ 32 µg/mL)
MIC (Pseudomonas aeruginosa): 4.02 µM and 5.68 µM
MIC (Escherichia coli UB1005): ≥ 32.1 µM
MIC [23]: 4.02 µM (≈ 8 µg/mL)
MIC [24]: 2.01 µM (≈ 4 µg/mL)

SMILES: CC[C@H](C)[C@H](NC(=O)[C@@H](NC(=O)[C@H](Cc1cnc[nH]1)NC(=O)[C@@H](NC(=O)[C@@H](NC(=O)[C@H](CCCCN)NC(=O)[C@H](CCCN=C(N)N)NC(=O)[C@@H](NC(=O)[C@@H](NC(=O)[C@H](CCCN=C(N)N)NC(=O)[C@@H](N)CCCN=C(N)N)[C@@H](C)CC)[C@@H](C)CC)[C@@H](C)CC)[C@@H](C)CC)[C@@H](C)CC)C(N)=O [RRIIRKIIHII]
MIC (Aspergillus fumigatus): 14 µM (≈ 20 µg/mL)
MIC [25]: 5.8 µM (≈ 8.29 µg/mL)
MIC [26]: 5.8 µM (≈ 8.29 µg/mL)
MIC (Staphylococcus aureus): > 14 µM
MIC (Klebsiella pneumoniae): 10.5 µM (≈ 15 µg/mL)
MIC (Bibersteinia trehalosi): 14 µM (≈ 20 µg/mL)
MIC [27]: 14 µM (≈ 20 µg/mL)
MIC [28]: 11.7 µM (≈ 16.7 µg/mL)
MIC [22]: 14 µM (≈ 20 µg/mL)
MIC (Pasteurella multocida): 14 µM (≈ 20 µg/mL)
MIC [29]: 14 µM (≈ 20 µg/mL)
